The numbers were not newly measured in patent publication US20040242698A1, “Analeptic and antidepressant combinations” (Cephalon Inc., priority 2003, published 2004), which cites them from elsewhere.

Molecules are shown by their SMILES.

Series [1] relates to rats. The settings on record: Touret et al., 1995, Edgar and Seidel, 1997.
In series [2] the test system is non-human primates. Particulars: Hernant et al, 1991.
Series [3] relates to canines. The settings on record: Shelton et al., 1995.
For series [4], the system named is narcoleptic canine. The settings on record: narcolepsy model; Shelton et al, 1995.
In series [5] the test system is cats. Particulars: Lin et al., 1992.
Series [6] has as its system English bulldog sleep disordered breathing model. Particulars: sleep apnea model; Panckeri et al, 1996.
The test system of series [7] is major depressive disorder. The settings on record: at 6 weeks.

As to `NC(=O)C[S+]([O-])C(c1ccccc1)c1ccccc1` (stereo not shown) [Modafinil, 2-(benzhydrylsulfinyl) acetamide], the wakefulness entry in series [1], in series [2], in series [3], in series [4], in series [5] and in series [6] was “promotes wakefulness” each time.
For `CNCCC(Oc1ccc(C(F)(F)F)cc1)c1ccccc1` (stereo not shown) [fluoxetine], the response result in series [7] was “about 50%”.
